A short description of test [1]: Feeding level after administration into rat lateral ventricle. The test is classed as in vivo, Wistar rats. As to conditions: 10 nmol/rat, at 1.5 hours and two hours after administration, vs distilled water group, p<0.05. As for the experimental part: Effects on the feeding level by administration of the human TGR23-2 ligand (1-20) into rat lateral ventricle were studied.
Rats were bred for lightning hours from eight to twenty o'clock at 25° C. Male Wistar rats at eight weeks old (260 through 280 g of weight at the time of operation) were anesthetized with 50 mg/kg of pentobarbital, i.p., and each rat was immobilized in a rat brain stereotaxic apparatus. The incisor bar was set 3.3 mm lower from the interaural line. The skull was exposed, and using a dental drill a hole was made on the bone for implantation of a guide cannula AG-8 (0.4 mm inner diameter, 0.5 mm outer diameter, EICOM Co., Ltd.). In addition, three anchor screws were buried around the hole. A stainless-steel guide cannula, AG-8 was inserted in such a manner that its tip would be situated in the upper part of the lateral ventricle. Following the atlas of Paxinos and Watson (1986), the stereotaxic coordinates were set to AP: −0.8 mm, L: 1.5 mm, and H: −4.5 mm from the bregma. The guide cannula was secured to the skull using an instant adhesive, dental cement and anchor screws. […]
For about one week after embedding of guide cannula, rats were bred to be postoperatively recuperative and be naturalized to powder feed. […] Feeding level after infusion was measured with time using Feed-Scale (Columbus) every 30 minutes until four hours after administration.

Test [2] deals with T1, human TGR23-1C expressing CHO cells (Homo sapiens, UniProt Q6W5P4, N107I).
T1 construct: expressed in transfected cells; host or cells: CHO dhfr- cells, pAKKO-TGR23-1C, clone No. 9
T1 sequence (Q6W5P4 1-371 N107I): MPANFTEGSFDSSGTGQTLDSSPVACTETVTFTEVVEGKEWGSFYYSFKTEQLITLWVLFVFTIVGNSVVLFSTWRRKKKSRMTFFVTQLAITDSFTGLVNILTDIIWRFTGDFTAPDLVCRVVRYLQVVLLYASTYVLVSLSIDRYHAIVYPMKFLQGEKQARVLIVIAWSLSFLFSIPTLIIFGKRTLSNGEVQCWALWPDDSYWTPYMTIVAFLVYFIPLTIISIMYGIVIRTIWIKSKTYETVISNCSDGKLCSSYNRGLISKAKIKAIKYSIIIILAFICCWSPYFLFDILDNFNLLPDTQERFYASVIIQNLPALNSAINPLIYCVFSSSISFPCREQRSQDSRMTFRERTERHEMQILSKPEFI
Put plainly: Intracellular Ca ion concentration increasing activity using FLIPR. The test is classed as cell-based. The protocol: (§1) An enhancing activity of intracellular Ca^2+ release was assayed using FLIPR (Molecular Devices, Inc.). The CHO/TGR23-2 cells prepared in Example 1 and selected in Example 2 were plated on 96-well plate at 3×10^4 cells/well and cultured for 24 hours. A loading buffer was prepared by adding 1 vial of Fluo 3-AM to 10 ml of Hanks' solution (pH7.4) containing 2.5 mM Probenecid and 20 mM HEPES (hereafter, Hanks' solution (pH7.4) containing 2.5 mM Probenecid and 20 mM HEPES may be referred to as a washing buffer). The culture medium was discarded from the culture plate and 100 μl/well of the loading buffer were added to the cells. Then, the cells were incubated for 60 minutes in the incubator. After the loading buffer was removed from the culture plate and the cells were washed with the washing buffer, the plate was put in place of FLIPR. A sample was prepared by adding a sample buffer, which 2 mg/ml BSA and 1 mg/ml CHAPS were added to the washing buffer, to lyophilized product, stirring and treating by ultrasonication for 30 minutes, and transferred to 96-well sample plate. This sample plate was also put in place for assay. The enhancing activity of intracellular Ca^2+ release was measured as an increase of fluorescent intensity, which is raised by addition of the sample.
(§2) The human TGR23-2 ligand (1-20) having various concentrations was administered in accordance with the method described in Example 5, to the CHO cells, in which human TGR23-1A, human TGR23-1B, human TGR23-1C and human TGR23-1D are expressed. Subsequently, the intracellular Ca ion concentration increasing activity was measured using FLIPR.

Test [3] has as its target T2, human TGR23-1A expressing CHO cells (Homo sapiens, UniProt Q6W5P4, S241R).
T2 construct: expressed in transfected cells; host or cells: CHO dhfr- cells, pAKKO-TGR23-1A, clone No. 60
T2 sequence (Q6W5P4 1-371 S241R): T1 sequence (Q6W5P4 1-371 N107I) with I107N, S241R
Described as above. The test is classed as cell-based. As for the experimental part: as §1, §2

Positions count from the first letter of the chain named. Where no end group is shown, it is not given here.

These results are taken from patent US7323541B2, “Polypeptide DNA thereof and use of the same” (Takeda Pharmaceutical Company Limited, priority 2001, dated 2008).

With “SFRNGVGTGMKKTSFQRAKS [human TGR23-2 ligand (1-20)]”, the feeding level result in test [1] is given as “significant decrease of feeding level”. For the same sequence, the “intracellular Ca ion concentration increasing activity” value in test [2] and in test [3] was “the intracellular Ca ion level increased depending on the concentration of this ligand” in each case.
